Assay results published in US11208400B2, “Substituted 6-(1H-pyrazol-1-yl)pyrimidin-4-amine derivatives and uses thereof” (Bayer Aktiengesellschaft, priority 2016, dated 2021).

These compounds were tested against T1, human Npt2a (Homo sapiens, UniProt Q06495) (assay: Npt2a activity cell based assay, membrane potential dye, CHO T-REx hNpt2a cells). Conditions: doxycycline-induced, depolarization by sodium phosphate influx, average or median values if tested more than once.
T1 construct: expressed in transfected cells
T1 sequence (Q06495 1-639): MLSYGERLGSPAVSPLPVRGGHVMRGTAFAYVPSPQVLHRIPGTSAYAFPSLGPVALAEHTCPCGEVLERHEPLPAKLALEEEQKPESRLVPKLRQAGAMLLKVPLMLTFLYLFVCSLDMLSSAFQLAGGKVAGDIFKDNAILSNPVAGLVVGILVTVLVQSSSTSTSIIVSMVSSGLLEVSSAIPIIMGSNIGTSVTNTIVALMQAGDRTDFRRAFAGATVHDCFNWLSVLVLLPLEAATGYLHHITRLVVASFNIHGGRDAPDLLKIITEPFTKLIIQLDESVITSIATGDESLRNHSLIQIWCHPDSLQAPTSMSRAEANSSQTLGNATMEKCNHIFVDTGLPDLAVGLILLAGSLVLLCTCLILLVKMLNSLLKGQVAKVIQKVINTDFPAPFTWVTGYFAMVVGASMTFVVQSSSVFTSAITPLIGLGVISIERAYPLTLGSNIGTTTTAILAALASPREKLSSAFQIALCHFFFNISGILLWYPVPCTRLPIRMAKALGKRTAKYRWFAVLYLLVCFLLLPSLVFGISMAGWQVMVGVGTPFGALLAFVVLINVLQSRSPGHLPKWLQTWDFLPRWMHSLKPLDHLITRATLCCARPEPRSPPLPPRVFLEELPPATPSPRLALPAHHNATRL
Description: For measuring Npt2a activity in a cell based assay, a stable CHO cell line with inducible Npt2a expression was generated. Therefore, CHO T-Rex cells (life technologies cat. R718-07) were stably transfected with doxycycline-inducible human NPT2a (pcDNA5TO-hNpt2a). The obtained CHO T-REx hNpt2a cells were routinely cultured in Dulbecco's MEM/F12 (4.5 g/l Glucose, Gibco cat. 21331-020; 500 mL) supplemented with 10 ml Glutamax 100×, Sodium pyruvate (7 mL of 100 mM solution), HEPES (10 mL of 1 M solution), Sodium bicarbonate (10 mL of 7.5% solution), 10% Fetal Bovine Serum Tetracycline free (Clontech cat. 631106, 500 ml), Penicillin-Streptomycin (5 mL of 100× Solution), Blasticidin 10 μg/mL and 400 μg/mL Hygromycin.
Activity of Npt2a was detected by following depolarization of cellular membrane potential by influx of sodium phosphate using fluorescent membrane potential dye kit BLUE (Molecular devices cat. R8034). For Npt2a activity measurements, CHO T-Rex hNpt2a cells were seeded into 1536 well microtiter plates (GREINER Bio-One cat. 782092) with 750 cells/well in 7 μL/w of complete medium (2% Tetracycline-free FBS, 2% Poly-D-Lysine) without selective agents+Doxycycline 0.5 μg/mL to induce Npt2a gene expression, and grown for 24 h at 37° C., 5% carbon dioxide.
On the day of experiment a 1×MPdye Loading Solution was freshly prepared by re-suspending 15 mg of Blue MPdye powder in 10 mL of NHE buffer sodium-free (140 mM N-Methyl-D-glucamine, 5.4 mM KCl, 1 mM CaCl2, 11 mM D(±)-Glucose water free, 1.2 mM MgCl2, 10 mM HEPES; pH 7.4 (adjusted with hydrochloric acid); sterile filtered). 5 μl medium was removed from plates by robotic manipulation, then 5 μL/well of sodium-free NHE buffer was added. After incubation for 2 min, this washing step was repeated once. Then, 5 μL/w of buffer was removed from plates and cells were incubated for 5 min at room temperature with 5 μL/w of MPdye Loading Solution (1× in Sodium-free NHE Buffer). Test compounds were added to the cells at final test concentrations between 50 μM and 1 nM (0.6 μL/well, final DMSO 0.6%, prepared in MPDye Loading Solution) and incubated for 5 min at room temperature.
Plates were analyzed with an in house CCD camera device using a λexc 510-545 nm/λem 565-625 nm filter. Fluorescence was detected for 15 sec (background measurement M1). Activity of Npt2a was triggered by addition of 2 μL/well of 30 mM Na+ and 1 mM phosphate (prepared in a mixture of NHE Buffer Na+ free and NHE Buffer 140 mM Na+). Fluorescence was followed for 2-3 min (depolarization measurement M2). Data was normalized to cell number and dye loading efficiency by calculating M2/M1. This quotient was plotted against test compound concentration. Graph Pad Prism or equivalent in house software was used to create sigmoidal dose-response curves (variable slope) and determine IC50 values.
Work on Cc1cc(C)n(-c2cc(Nc3c(C)c(-c4ccc(F)cc4)nn3CC(O)C3CC3)ncn2)n1 (racemic) [Example 369, (±)-1-cyclopropyl-2-[5-{[6-(3,5-dimethyl-1H-pyrazol-1-yl)pyrimidin-4-yl]amino}-3-(4-fluorophenyl)-4-methyl-1H-pyrazol-1-yl]ethanol] yielded an IC50 of 420 nM.
COCc1c(C)nn(-c2cc(Nc3c(C)c(-c4ccc(F)cc4)nn3CC3CC3)ncn2)c1C [Example 503, N-[1-(cyclopropylmethyl)-3-(4-fluorophenyl)-4-methyl-1H-pyrazol-5-yl]-6-[4-(methoxymethyl)-3,5-dimethyl-1H-pyrazol-1-yl]pyrimidin-4-amine] gave an IC50 of 4 nM.
With CCOC(=O)c1c(C)nn(-c2cc(Nc3c(C)c(-c4ccc(F)cn4)nn3CCOC)ncn2)c1C [Example 545, ethyl 1-(6-{[3-(5-fluoropyridin-2-yl)-1-(2-methoxyethyl)-4-methyl-1H-pyrazol-5-yl]amino}pyrimidin-4-yl)-3,5-dimethyl-1H-pyrazole-4-carboxylate] the IC50 was 14 nM.
Cc1nn(-c2cc(Nc3c(C)nn(-c4ccc(C#N)cc4)c3C)ncn2)c(C)c1Cl [Example 208, 4-(4-{[6-(4-chloro-3,5-dimethyl-1H-pyrazol-1-yl)pyrimidin-4-yl]amino}-3,5-dimethyl-1H-pyrazol-1-yl)benzonitrile] was tested, and the IC50 was 465 nM.
In the case of Cc1nn(-c2cc(Nc3c(C)c(-c4ccc(F)cc4)nn3CC3CC3)ncn2)c(C)c1CN1CC(F)(F)C1 [Example 390, N-[1-(cyclopropylmethyl)-3-(4-fluorophenyl)-4-methyl-1H-pyrazol-5-yl]-6-{4-[(3,3-difluoroazetidin-1-yl)methyl]-3,5-dimethyl-1H-pyrazol-1-yl}pyrimidin-4-amine], the IC50 is reported as 25 nM.
In the case of COc1c(-c2ccc(F)cc2)nn(C)c1Nc1cc(-n2nc(C)cc2C)ncn1 [Example 254, 6-(3,5-dimethyl-1H-pyrazol-1-yl)-N-[3-(4-fluorophenyl)-4-methoxy-1-methyl-1H-pyrazol-5-yl]pyrimidin-4-amine], the IC50 is reported as 150 nM.
CC(=O)c1c(C)nn(-c2cc(Nc3c(C)c(-c4ccc(F)cc4)nn3CC3CC3)ncn2)c1C [Example 502, 1-[1-(6-{[1-(cyclopropylmethyl)-3-(4-fluorophenyl)-4-methyl-1H-pyrazol-5-yl]amino}pyrimidin-4-yl)-3,5-dimethyl-1H-pyrazol-4-yl]ethanone] gave an IC50 of 5 nM.
Work on COC(=O)Oc1c(C)nn(-c2cc(Nc3c(C)c(-c4ccc(F)cc4)nn3CC3CC3)ncn2)c1C [Example 518, 1-(6-{[1-(cyclopropylmethyl)-3-(4-fluorophenyl)-4-methyl-1H-pyrazol-5-yl]amino}pyrimidin-4-yl)-3,5-dimethyl-1H-pyrazol-4-yl methyl carbonate] yielded an IC50 of 14 nM.
For COC(C)c1c(C)nn(-c2cc(Nc3nn(C)c(-c4ccc(F)cc4)c3C)ncn2)c1C (single isomer, unassigned) [Example 344, N-[5-(4-fluorophenyl)-1,4-dimethyl-1H-pyrazol-3-yl]-6-{4-[1-methoxyethyl]-3,5-dimethyl-1H-pyrazol-1-yl}pyrimidin-4-amine], the IC50 was 5 nM.
Cc1nn(-c2cc(Nc3c(C)c(-c4ccc(F)cc4)nn3CC3CC3)ncn2)c(C)c1[S+](C)[O-] (stereo not drawn) [Example 401, N-[1-(cyclopropylmethyl)-3-(4-fluorophenyl)-4-methyl-1H-pyrazol-5-yl]-6-[3,5-dimethyl-4-(methylsulfinyl)-1H-pyrazol-1-yl]pyrimidin-4-amine] was tested, and the IC50 was 1400 nM.
In the case of CCc1c(Nc2cc(-n3nc4c(c3O)CCCC4)ncn2)n[nH]c1-c1ccc(F)cc1 [Example 30, 2-(6-{[4-ethyl-5-(4-fluorophenyl)-1H-pyrazol-3-yl]amino}pyrimidin-4-yl)-4,5,6,7-tetrahydro-2H-indazol-3-ol], the IC50 is reported as 620 nM.
CCOC(=O)c1c(C)nn(-c2cc(Nc3nn(C)c(-c4ccc(Cl)cc4)c3C)ncn2)c1C [Example 353, ethyl 1-(6-{[5-(4-chlorophenyl)-1,4-dimethyl-1H-pyrazol-3-yl]amino}pyrimidin-4-yl)-3,5-dimethyl-1H-pyrazole-4-carboxylate] gave an IC50 of 5 nM.
With CCc1c(-c2ccc(C#N)cc2)nn(CC2CC2)c1Nc1cc(-n2nc(C)c3ccncc32)ncn1 [Example 203, 4-[1-(cyclopropylmethyl)-4-ethyl-5-{[6-(3-methyl-1H-pyrazolo[3,4-c]pyridin-1-yl)pyrimidin-4-yl]amino}-1H-pyrazol-3-yl]benzonitrile] the IC50 was 1400 nM.
CCOC(=O)c1c(C)nn(-c2cc(Nc3nn(CC4CC4)c(-c4ccc(F)cc4)c3CC)ncn2)c1C [Example 145, ethyl 1-(6-{[1-(cyclopropylmethyl)-4-ethyl-5-(4-fluorophenyl)-1H-pyrazol-3-yl]amino}pyrimidin-4-yl)-3,5-dimethyl-1H-pyrazole-4-carboxylate] was tested, and the IC50 was 170 nM.
For COC(C)c1c(C)nn(-c2cc(Nc3c(C)c(-c4ccc(C#N)cc4)nn3C)ncn2)c1C (single isomer, unassigned) [Example 340, 4-{5-[(6-{4-[1-methoxyethyl]-3,5-dimethyl-1H-pyrazol-1-yl}pyrimidin-4-yl)amino]-1,4-dimethyl-1H-pyrazol-3-yl}benzonitrile], the IC50 was 12 nM.
Compound Cc1nn(-c2cc(Nc3nn(C)c(-c4ccc(F)cc4)c3Cl)ncn2)c(C)c1Cl [Example 89, 6-(4-chloro-3,5-dimethyl-1H-pyrazol-1-yl)-N-[4-chloro-5-(4-fluorophenyl)-1-methyl-1H-pyrazol-3-yl]pyrimidin-4-amine] has an IC50 of 4.8 nM.
For Cc1nn(-c2cc(Nc3c(C)c(-c4ccc(C(F)(F)F)nc4)nn3C)ncn2)c(C)c1Cl [Example 550, 6-(4-chloro-3,5-dimethyl-1H-pyrazol-1-yl)-N-{1,4-dimethyl-3-[6-(trifluoromethyl)pyridin-3-yl]-1H-pyrazol-5-yl}pyrimidin-4-amine], the IC50 was 500 nM.
Work on Cc1nn(-c2cc(Nc3c(C)c(-c4ccc(F)cc4)nn3CC3CC3)ncn2)c(C)c1Br [Example 406, 6-(4-bromo-3,5-dimethyl-1H-pyrazol-1-yl)-N-[1-(cyclopropylmethyl)-3-(4-fluorophenyl)-4-methyl-1H-pyrazol-5-yl]pyrimidin-4-amine] yielded an IC50 of 3 nM.
COCCc1c(Nc2cc(-n3nc(C)cc3C)ncn2)n[nH]c1-c1ccc(F)cc1 [Example 38, 6-(3,5-dimethyl-1H-pyrazol-1-yl)-N-[5-(4-fluorophenyl)-4-(2-methoxyethyl)-1H-pyrazol-3-yl]pyrimidin-4-amine] gave an IC50 of 2350 nM.
With CCc1c(-c2ccc(F)cc2)nn(C)c1Nc1cc(-n2nc(C)cc2C)ncn1 [Example 12, 6-(3,5-dimethyl-1H-pyrazol-1-yl)-N-[4-ethyl-3-(4-fluorophenyl)-1-methyl-1H-pyrazol-5-yl]pyrimidin-4-amine] the IC50 was 50 nM.
Compound CCc1c(Nc2cc(-n3nc(C)c(C(=O)N(C)C)c3C)ncn2)nn(C)c1-c1ccc(F)cc1 [Example 127, 1-(6-{[4-ethyl-5-(4-fluorophenyl)-1-methyl-1H-pyrazol-3-yl]amino}pyrimidin-4-yl)-N,N,3,5-tetramethyl-1H-pyrazole-4-carboxamide] has an IC50 of 1200 nM.
